Literature values, collected in patent US7968511B2, “Combination therapy with glatiramer acetate and mitoxantrone for the treatment of multiple sclerosis” (Teva Pharmaceutical Industries, Ltd., priority 2003, dated 2011).

Test system: multiple sclerosis (MS)
Details: daily subcutaneous injections, 20 mg/injection

L-glutamic acid polymer with L-alanine, L-lysine and L-tyrosine, acetate (salt) [glatiramer acetate]
reduce: appearance of "black holes" | appearance of new lesions by magnetic resonance imaging (MRI) | progression of disability | relapse rates
